Measurements published in patent publication US6586204B2, “Apoptosis gene EI24, compositions, and methods of use” (Apoptosis Technology, Inc., priority 1996, dated 2003).

Tests used:
p21/WAF1 mRNA = assay: Northern blot of E1A/ras transformed murine embryonic fibroblasts, p21/WAF1 probe; type: cell-based
Method: (§1) Northern blot showing induction of EI24 RNA by p53 in E1A/ras transformed murine embryonic fibroblasts (MEFs). 1.0 μg of poly-A^+ RNA was loaded per lane. p53^+/+ and p53^−/− MEFs were left untreated, or treated with 50 μM etoposide for 6 hours, as indicated (lanes 1-4). Alternately, p53^−/− MEFs expressing either empty vector (pBabe Puro), or a tamoxifen-regulatable p53 (p53ER™) were left untreated, or treated with 3.3 μM tamoxifen (TMX) for 16 hours (lanes 5-8). The northern blot was hybridized sequentially with probes for EI24, p21/WAF1 and tubulin.
E1A and ras transformed mouse embryo fibroblasts and expression of the p53-ER™ fusion protein. Stable cell lines of p53^+/+ and p53^−/− MEFs expressing the oncogenes E1A and T24 H-ras were generated as described previously (Lowe S. W., Jacks T., Housman D. E. and Ruley H. E. (1994) Proc. Natl. Acad. Sci. USA, 91, 2026-2030). The plasmid for expression of the p53ER™ fusion protein, pBabe Puro p53ER™ G525R, using the retroviral vector pBabe Puro (Morgenstern J. P. and Land H. (1990) Nucl. Acids Res., 18, 3587-3596), was received as a generous gift from Trevor Littlewood (Imperial Cancer Research Fund, London). […]

[1] = system: 5 kb mRNA detected by 38T19 probe; assay: Northern blot of etoposide-treated 3T3 cells, 38T19 probe; type: cell-based, Murine; settings: 50 μM etoposide, 6 to 11 hours after treatment
Method: Induction of the 2.4 kb mRNA appeared to be maximal by 6 hours after etoposide exposure, representing a 7-fold increase. […] The levels of this mRNA were highest in untreated cells, and decreased at 6 to 11 hours after etoposide treatment, corresponding to a 4-fold reduction.

NIH3T3 fibroblasts = assay: Etoposide exposure of asynchronously growing NIH3T3 fibroblasts, cell killing and microscopic observation; type: cell-based, Murine; settings: 50 μM etoposide
EI24 mRNA = assay: Northern blot of E1A/ras transformed murine embryonic fibroblasts, EI24 probe; type: cell-based
Method: as §1
E1A and ras transformed mouse embryo fibroblasts and expression of the p53-ER™ fusion protein. Stable cell lines of p53^+/+ and p53^−/− MEFs expressing the oncogenes E1A and T24 H-ras were generated as described previously (Lowe S. W., Jacks T., Housman D. E. and Ruley H. E. (1994) Proc. Natl. Acad. Sci. USA, 91, 2026-2030). The plasmid for expression of the p53ER™ fusion protein, pBabe Puro p53ER™ G525R, using the retroviral vector pBabe Puro (Morgenstern J. P. and Land H. (1990) Nucl. Acids Res., 18, 3587-3596), was received as a generous gift from Trevor Littlewood (Imperial Cancer Research Fund, London). In brief, this plasmid contains the ˜1.3 kb BamHI fragment of human p53 from pSV53her (Roemer K. and Friedmann T. (1993) Proc. Natl. Acad. Sci. USA, 90, 9252-9256) fused to the ligand-binding domain of the murine estrogen receptor carrying a point mutation at amino acid 525 that renders the receptor unable to bind estradiol but able to bind tamoxifen or 4-hydroxy tamoxifen (Danielian P., White R., Hoare S., Fawell S. and Parker M. (1993) Mol Endocrinol, 7, 232-240; Littlewood T. D., Hancock D. C., Danielian P. S., Parker M. G. and Evan G. I. (1995) NAR, 23, 1686-1690). For induction of wild-type p53 activity, p53ER™ transfected p53^−/− cells were treated with […] tamoxifen (Sigma). […]

[2] = system: 2.4 kb mRNA recognized by 11G10 (EI24); assay: Northern blot of etoposide-treated 3T3 cells, 11G10 probe; settings: 50 μM etoposide

| Structure (SMILES) | induction of WAF1 RNA (p21/WAF1 mRNA; etoposide, p53−/− MEFs, maximal level lower than in p53+/+ cells) | reduction of 5 kb mRNA [1] [fold] | signs of apoptosis by microscopic observation (NIH3T3 fibroblasts; for at least 6 hours following exposure) | cell killing (NIH3T3 fibroblasts; within 24 hours, asynchronously growing NIH3T3 cells) | induction of EI24 mRNA (EI24 mRNA; etoposide 50 μM, 6 hours, E1A/ras-transformed p53+/+ cells) | induction of EI24 mRNA (EI24 mRNA; etoposide 50 μM, 6 hours, E1A/ras-transformed p53−/− cells) | increase of 2.4 kb mRNA (EI24) ([2]; 3 hours post treatment) [fold] | increase of 2.4 kb mRNA (EI24), maximal induction ([2]; 6 hours after exposure) [fold] | induction of WAF1 mRNA (p21/WAF1 mRNA; tamoxifen treatment, p53ER p53−/− cells) | induction of EI24 mRNA (EI24 mRNA; tamoxifen, p53−/− control cell line (pBabe Puro) with empty vector) |
| --- | --- | --- | --- | --- | --- | --- | --- | --- | --- | --- |
| COc1cc([C@@H]2c3cc4c(cc3[C@@H](O[C@@H]3O[C@@H]5CO[C@@H](C)O[C@H]5[C@H](O)[C@H]3O)[C@H]3COC(=O)[C@H]23)OCO4)cc(OC)c1O [etoposide, Etoposide] | WAF1 RNA was induced | 4 | no obvious signs of apoptosis | kill the majority of asynchronously growing cells | further induced | No induction of EI24 | 4 | 7 | – | – |
| CC/C(=C(\c1ccccc1)c1ccc(OCCN(C)C)cc1)c1ccccc1 [tamoxifen] | – | – | – | – | – | – | – | – | strongly induced | No EI24 induction |
